Measurements taken from patent US5021421A, “2-(1-Piperazinyl)-4-phenylcycloalkanopyridine derivatives, processes for the production thereof, and pharmaceutical composition containing the same” (Dainippon Pharmaceutical Co., Ltd., priority 1989, dated 1991).
Like-named read-outs stand apart in the source and are kept apart here.

Legend:
[1] = tested on: brain monoamine metabolites; assay: Increasing effect on concentration of brain monoamine metabolites; type: in vivo, mice (Std-ddy strain); conditions: Mus musculus, 2 h, non-dosed=100
Procedure: A group of 5 male mice (Std-ddy strain, 25-30 g) was used for examining effect of the test compounds on concentration of brain monoamine metabolites.
Mice were killed by decapitation 2 hours after treatment with the test compounds. Brains were quickly taken out, homogenized in 1N formic acid-acetone solution, and centrifuged in a refrigerated ultracentrifuge. The supernatant was evaporated by blowing with N2 gas. Then, the residue was again resolved in 0.01 N acetic acid, and served for determining concentration of dopamine metabolites, 3,4-dihydroxyphenylacetic acid (DOPAC) and homovanillic acid (HVA), a norepinephrine metabolite, 3-methyl-4-hydroxyphenylethylene glycol (MOPEG), and a serotonin metabolite, 5-hydroxyindole-3-acetic acid (5-HIAA) concentrations by HPLC with electrochemical detection. The effect of the test compounds on concentration of each monoamine metabolite is shown as % of control (level of non-dosed animals=100) in Table 4.

[2] = tested on: apomorphine-induced vomiting; assay: Antagonistic effect on apomorphine-induced vomiting; type: in vivo, dogs (Beagle); conditions: Canis lupus familiaris, sc, apomorphine 0.3 mg/kg s.c. 2 h after compound, read-out: Inhibitory ratio (apomorphine-induced vomiting)
Procedure: A group of 3-4 dogs (Beagle, 8-15 kg) was used for examining effects on the test compounds on apomorphine-induced vomiting, a known test for evaluating neuroleptic drugs.
Each dog was given a subcutaneous injection of apomorphine hydrochloride (0.3 mg/kg) two hours after the treatment of the test compounds. Then, the frequency of oral vomiting was counted for one hour. The mean counts of the compound-treated group were compared with those of the corresponding control (non-dosed) group, and the percent inhibition was calculated.

[3] = read-out: DOPAC concentration, % of control
[4] = read-out: HVA concentration, % of control
[5] = read-out: 5-HIAA concentration, % of control
[6] = read-out: MOPEG concentration, % of control

`CCN1CCN(c2cc(-c3ccc(F)cc3F)c3c(n2)CCC3)CC1` [Example 132, 2-(4-ethyl-1-piperazinyl)-4-(2,4-difluorophenyl)-6,7-dihydro-5H-1-pyrindin] was tested, and the response vs control in vivo at 10 mg/kg [1, 3] was 333% and the response vs control in vivo at 10 mg/kg [1, 4] was 209%.

`Cc1ccc(-c2cc(N3CCN(CCO)CC3)nc3c2CCCCC3)cc1` [Example 35] showed a response vs control in vivo at 10 mg/kg [1, 3] of 165% and a response vs control in vivo at 10 mg/kg [1, 4] of 170%.

Compound `CCN1CCN(c2cc(-c3ccc(F)cc3)c3c(n2)CCC(C)C3)CC1` (centres unmarked) [Example 59] has a response vs control in vivo at 2 mg/kg [1, 5] of 106%, a response vs control in vivo at 2 mg/kg [1, 3] of 246% and a response vs control in vivo at 2 mg/kg [1, 4] of 236%. The response vs control in vivo at 2 mg/kg [1, 6] was 126%.

Work on `CCN1CCN(c2cc(-c3cccc(F)c3)c3c(n2)CCCCC3)CC1` [Example 27] yielded an inhibition in vivo at 3 mg/kg ([2]; dose 3.0 mg/kg) of 47%, a response vs control in vivo at 10 mg/kg [1, 3] of 208% and a response vs control in vivo at 10 mg/kg [1, 4] of 193%.

With `CCN1CCN(c2cc(-c3cccc(Cl)c3)c3c(n2)CCCCCC3)CC1` [Example 46] the response vs control in vivo at 10 mg/kg [1, 3] was 296% and the response vs control in vivo at 10 mg/kg [1, 4] was 235%.

In the case of `CCCCCCN1CCN(c2cc(-c3ccc(F)cc3)c3c(n2)CCCCCC3)CC1` [Example 124], the response vs control in vivo at 10 mg/kg [1, 5] is reported as 107%, the response vs control in vivo at 10 mg/kg [1, 3] is reported as 292% and the response vs control in vivo at 10 mg/kg [1, 4] is reported as 238%. The response vs control in vivo at 10 mg/kg [1, 6] was 102%.

With `CCN1CCN(c2cc(-c3ccc(F)c(F)c3)c3c(n2)CCCCCC3)CC1` [Example 54] the response vs control in vivo at 2 mg/kg [1, 3] was 251% and the response vs control in vivo at 2 mg/kg [1, 4] was 250%.

Compound `CCN1CCN(c2cc(-c3ccc(F)cc3)c3c(n2)CCC(C)(C)C3)CC1` [Example 66] has an inhibition in vivo at 1 mg/kg [2] of 95%, a response vs control in vivo at 2 mg/kg [1, 5] of 116% and a response vs control in vivo at 2 mg/kg [1, 3] of 311%. The response vs control in vivo at 2 mg/kg [1, 4] was 308% and the response vs control in vivo at 2 mg/kg [1, 6] was 111%.

In the case of `CC(=O)OCCN1CCN(c2cc(-c3ccc(F)cc3)c3c(n2)CCCCCC3)CC1` [Example 139, 2-[4-(2-acetoxyethyl)-1-piperazinyl]-4-(4-fluorophenyl)-5,6,7,8,9,10-hexahydrocycloocta[b]pyridine], the response vs control in vivo at 10 mg/kg [1, 3] is reported as 267% and the response vs control in vivo at 10 mg/kg [1, 4] is reported as 206%.

Compound `CCN1CCN(c2cc(-c3ccc(Cl)cc3)c3c(n2)CCCCCC3)CC1` [Example 44] has a response vs control in vivo at 10 mg/kg [1, 3] of 272% and a response vs control in vivo at 10 mg/kg [1, 4] of 210%.

For `CCN1CCN(c2cc(-c3ccccc3F)c3c(n2)CCCCCC3)CC1` [Example 43], the inhibition in vivo at 1 mg/kg [2] was 96%.

Work on `CCN1CCN(c2cc(-c3ccc(F)cc3F)c3c(n2)C2CCC3C2)CC1` (centres unmarked) [Example 135, 2-(4-ethyl-1-piperazinyl)-4-(2,4-difluorophenyl)-5,6,7,8-tetrahydro-5,8-methanoquinoline] yielded an inhibition in vivo at 1 mg/kg [2] of 100%.

With `CCN1CCN(c2cc(-c3ccc(F)cc3)c3c(n2)CC(C)(C)CC3C)CC1` (centres unmarked) [Example 68] the response vs control in vivo at 2 mg/kg [1, 3] was 206% and the response vs control in vivo at 2 mg/kg [1, 4] was 181%.

`CCN1CCN(c2cc(-c3ccc(OC)cc3)c3c(n2)CCCCCC3)CC1` [Example 49, 2-(4-Ethyl-1-piperazinyl)-4-(4-methoxyphenyl)-5,6,7,8,9,10-hexahydrocycloocta[b]pyridine] gave a response vs control in vivo at 10 mg/kg [1, 3] of 197% and a response vs control in vivo at 10 mg/kg [1, 4] of 195%.

With `OCCN1CCN(c2cc(-c3ccccc3)c3c(n2)CCCCC3)CC1` [Example 24] the response vs control in vivo at 10 mg/kg [1, 5] was 150%, the response vs control in vivo at 10 mg/kg [1, 3] was 290% and the response vs control in vivo at 10 mg/kg [1, 4] was 317%. For the same compound, the response vs control in vivo at 10 mg/kg [1, 6] was 139%.
